Test results taken from patent US10201533B2, “Substituted quinolizine derivatives useful as HIV integrase inhibitors” (priority 2013, dated 2019).
Read-outs that look alike come from different tables or passages of the source.

Tested on: HIV-1 (NL4-3 strain)
Experiment: microbe, parasite or virus in culture
Assay type: cell-based
Conditions: MT4-GFP cells infected with HIV-1 NL4-3, IP or IC50 from 4-parameter dose response curve
[1] = 0% normal human serum (NHS), read-out: WILD TYPE CELL ASSAY Viking IP (0% NHS)
[2] = 100% normal human serum (NHS), read-out: WILD TYPE CELL ASSAY Viking IP (100% NHS)
[3] = Human immunodeficiency virus 1, NL43, 0% normal human serum (NHS), read-out: WILD TYPE CELL ASSAY Viking IP (0% NHS)
[4] = Human immunodeficiency virus 1, NL43, 100% normal human serum (NHS), read-out: WILD TYPE CELL ASSAY Viking IP (100% NHS)

| SMILES | IC50 [1] [nM] | IC50 [2] [nM] | IC50 [3] [nM] | IC50 [4] [nM] |
| --- | --- | --- | --- | --- |
| COCCC[C@]1(C)C(=O)c2c(O)c(=O)c(C(=O)NCc3ccc(F)cc3F)cn2C[C@@H]1OC [Compound 75] | 0.5 | 13 | – | – |
| COCCC[C@]1(C)C(=O)c2c(O)c(=O)c(C(=O)NCc3c(F)cc(F)cc3F)cn2C[C@@H]1OC [Compound 90] | 0.8 | 13 | – | – |
| COC[C@@]1(C)C(=O)c2c(O)c(=O)c(C(=O)NCc3ccc(F)cc3F)cn2C[C@@H]1OC [Compound 57] | 4.7 | 3500 | – | – |
| COCCC[C@@]1(C)C(=O)c2c(O)c(=O)c(C(=O)NCc3c(F)cccc3F)cn2C[C@@H]1OC [Compound 84] | – | – | 1.8 | 31 |
| C[C@@]12CCCC[C@]1(O)Cn1cc(C(=O)NCc3ccc(F)c(Cl)c3)c(=O)c(O)c1C2=O [Compound 96] | – | – | 6.2 | > 8400 |
| COc1c2n(cc(-c3nnc(Cc4ccc(F)cc4F)s3)c1=O)CC(OC)C(C)(C)C2=O (stereo not shown) [Compound 6] | 10 | – | – | – |
| COC[C@]1(C)C(=O)c2c(O)c(=O)c(C(=O)NCc3ccc(F)cc3F)cn2C[C@@H]1OC [Compound 55] | 8.1 | > 8400 | – | – |
| C[C@]12CCCC[C@@]1(O)Cn1cc(C(=O)NCc3ccc(F)cc3F)c(=O)c(O)c1C2=O [Compound 95] | – | – | 2.2 | 41 |
| C[C@]12CCCO[C@H]1Cn1cc(C(=O)NCc3ccc(F)c(Cl)c3)c(=O)c(O)c1C2=O (single isomer, unassigned) [Compound 30] | – | – | 2.8 | > 8400 |
| CC12CCCC1(O)Cn1cc(C(=O)NCc3ccc(F)cc3F)c(=O)c(O)c1C2=O (stereo not shown) [Compound 104] | – | – | 3.6 | 343 |
| COCCC[C@]1(C)C(=O)c2c(O)c(=O)c(C(=O)NCc3cccc(Cl)c3F)cn2C[C@@H]1OC [Compound 79] | 1 | 662 | – | – |
| C[C@@]12CCCO[C@@H]1Cn1cc(C(=O)NCc3cccc(Cl)c3F)c(=O)c(O)c1C2=O (single isomer, unassigned) [Compound 15] | – | – | 0.5 | 73 |
| COC[C@]1(C)C(=O)c2c(O)c(=O)c(C(=O)NCc3ccc(F)cc3F)cn2C[C@@H]1OC [Compound 54] | 1.8 | 55 | – | – |
| C[C@]12CCCO[C@H]1Cn1cc(C(=O)NCc3ccc(F)cc3)c(=O)c(O)c1C2=O (single isomer, unassigned) [Compound 19] | – | – | 4.6 | 709 |
| C[C@]12CCCCO[C@H]1Cn1cc(C(=O)NCc3cccc(Cl)c3F)c(=O)c(O)c1C2=O [Compound 38] | 1.8 | 1600 | – | – |
| COCC[C@@]1(C)C(=O)c2c(O)c(=O)c(C(=O)NCc3c(F)cccc3F)cn2C[C@@H]1OC [Compound 71] | 2.2 | 89 | – | – |
| CO[C@]12CCCC[C@@]1(C)C(=O)c1c(O)c(=O)c(C(=O)NCc3ccc(F)cc3F)cn1C2 [Compound 113] | – | – | 1.3 | > 8000 |
| COCCC[C@]1(C)C(=O)c2c(O)c(=O)c(C(=O)NCc3c(F)cccc3F)cn2C[C@@H]1OC [Compound 82] | 4.1 | 160 | – | – |
| C[C@]12CCCO[C@H]1Cn1cc(C(=O)NCc3cccc(Cl)c3F)c(=O)c(O)c1C2=O (single isomer, unassigned) [Compound 26] | – | – | 1.1 | 2550 |

| SMILES | IC50 [1] [nM] | IC50 [2] [nM] | IC50 [3] [nM] | IC50 [4] [nM] |
| --- | --- | --- | --- | --- |
| C[C@]12CCCCO[C@@H]1Cn1cc(C(=O)NCc3cccc(Cl)c3F)c(=O)c(O)c1C2=O (single isomer, unassigned) [Compound 45] | – | 4750 | 2.3 | – |
| C[C@]12CCCO[C@@H]1Cn1cc(C(=O)NCc3ccc(F)cc3F)c(=O)c(O)c1C2=O (single isomer, unassigned) [Compound 34] | 1.7 | 1500 | – | – |
| CO[C@@]12CCCCC[C@]1(C)C(=O)c1c(O)c(=O)c(C(=O)NCc3ccc(F)cc3F)cn1C2 [Compound 118] | – | – | 1.4 | 873 |
| CC1(C)CCC[C@@]2(C)C(=O)c3c(O)c(=O)c(C(=O)NCc4ccc(F)cc4F)cn3C[C@@]12O [Compound 109] | – | – | 3.2 | 714 |
| C[C@@]12COCO[C@H]1Cn1cc(C(=O)NCc3ccc(F)cc3F)c(=O)c(O)c1C2=O [Compound 11] | – | – | 3.2 | 484 |
| CO[C@@]12CCCC[C@]1(C)C(=O)c1c(O)c(=O)c(C(=O)NCc3ccc(F)cc3F)cn1C2 [Compound 112] | – | – | 0.65 | 4110 |
| C[C@]12CCCN[C@H]1Cn1cc(C(=O)NCc3ccc(F)cc3F)c(=O)c(O)c1C2=O [Compound 122] | 3.3 | 35 | – | – |
| COC1Cn2cc(C(=O)NCc3ccc(F)cc3F)c(=O)c(O)c2C(=O)C1(C)C (stereo not shown) [Compound 5] | – | – | 2.6 | 102 |
| Cc1c(F)ccc(CNC(=O)c2cn3c(c(O)c2=O)C(=O)[C@@]2(C)CCCO[C@H]2C3)c1F (single isomer, unassigned) [Compound 27] | – | – | 2 | > 8400 |
| C[C@@]12CCCO[C@@H]1Cn1cc(C(=O)NCc3ccc(F)c(F)c3F)c(=O)c(O)c1C2=O (single isomer, unassigned) [Compound 17] | – | – | 2.9 | 117 |
| C[C@]12CCCO[C@H]1Cn1cc(C(=O)NCc3ccc(F)cc3F)c(=O)c(O)c1C2=O [Compound 7] | – | 154 | 2.2 | – |
| C[C@]12CCCO[C@@H]1Cn1cc(C(=O)NCc3cccc(Cl)c3F)c(=O)c(O)c1C2=O (single isomer, unassigned) [Compound 36] | 0.6 | 1400 | – | – |
| C[C@]12CC=CCO[C@@H]1Cn1cc(C(=O)NCc3ccc(F)cc3F)c(=O)c(O)c1C2=O [Compound 49] | – | 4070 | 3.2 | – |
| C[C@@]12CCCCO[C@@H]1Cn1cc(C(=O)NCc3c(F)cc(F)cc3F)c(=O)c(O)c1C2=O (single isomer, unassigned) [Compound 42] | 2.1 | 517 | – | – |
| C[C@]12CCCO[C@H]1Cn1cc(C(=O)NCc3ccc(F)c(Br)c3)c(=O)c(O)c1C2=O (single isomer, unassigned) [Compound 25] | – | – | 4.2 | > 8400 |
| C[C@]12CCCO[C@H]1Cn1cc(C(=O)NCc3ccc4c(c3)OCO4)c(=O)c(O)c1C2=O (single isomer, unassigned) [Compound 29] | – | – | 17 | > 8400 |
| C[C@]12CCCN[C@H]1Cn1cc(C(=O)NCc3ccc(F)cc3F)c(=O)c(O)c1C2=O [Compound 121] | – | – | 2.6 | 62 |
| CN1CCC[C@]2(C)C(=O)c3c(O)c(=O)c(C(=O)NCc4ccc(F)cc4F)cn3C[C@H]12 [Compound 124] | – | – | 3.2 | 53 |
| COCCC[C@@]1(C)C(=O)c2c(O)c(=O)c(C(=O)NCc3ccccc3F)cn2C[C@@H]1OC [Compound 88] | – | – | 2.3 | 63 |

| SMILES | IC50 [1] [nM] | IC50 [2] [nM] | IC50 [3] [nM] | IC50 [4] [nM] |
| --- | --- | --- | --- | --- |
| CC1(C)C(=O)c2c(O)c(=O)c(C(=O)NCc3ccc(F)cc3F)cn2CC1O (stereo not shown) [Compound 4] | – | – | 74 | 1850 |
| COCC[C@]1(C)C(=O)c2c(O)c(=O)c(C(=O)NCc3c(F)cccc3F)cn2C[C@@H]1OC [Compound 73] | 1 | 22 | – | – |
| COC12CCCC1(C)C(=O)c1c(O)c(=O)c(C(=O)NCc3ccc(F)c(F)c3F)cn1C2 (stereo not shown) [Compound 107] | – | – | 5.7 | 4930 |
| C[C@]12CCCCO[C@H]1Cn1cc(C(=O)NCc3cccc(Cl)c3F)c(=O)c(O)c1C2=O [Compound 37] | – | 80 | 1.5 | – |
| CC[C@]12CCCO[C@@H]1Cn1cc(C(=O)NCc3ccc(F)cc3F)c(=O)c(O)c1C2=O [Compound 120] | – | – | 0.8 | 116 |
| C[C@]12CCCO[C@H]1Cn1cc(C(=O)NCc3ccc(F)cc3F)c(=O)c(O)c1C2=O [Compound 8] | 1.8 | 500 | – | – |
| C[C@]12CCCO[C@H]1Cn1cc(C(=O)NCc3ccccc3F)c(=O)c(O)c1C2=O (single isomer, unassigned) [Compound 21] | – | – | 2.4 | 385 |
| COCC[C@@]1(C)C(=O)c2c(O)c(=O)c(C(=O)NCc3ccccc3F)cn2C[C@@H]1OC [Compound 67] | 1.7 | 154 | – | – |
| COCC[C@]1(C)C(=O)c2c(O)c(=O)c(C(=O)NCc3cccc(Cl)c3F)cn2C[C@@H]1OC [Compound 64] | – | 2960 | 0.9 | – |
| O=C(NCc1ccc(F)cc1F)c1cn2c(c(O)c1=O)C(=O)C1CCOC1C2 (stereo not shown) [Compound 10] | – | – | 66 | – |
| C[C@]12CC=CCO[C@@H]1Cn1cc(C(=O)NCc3ccc(F)cc3F)c(=O)c(O)c1C2=O [Compound 50] | 1.6 | 293 | – | – |
| C[C@]12CCCO[C@@H]1Cn1cc(C(=O)NCc3ccc(F)cc3F)c(=O)c(O)c1C2=O (single isomer, unassigned) [Compound 33] | 0.5 | 281 | – | – |
| C[C@]12CCCCO[C@@H]1Cn1cc(C(=O)NCc3ccc(F)cc3F)c(=O)c(O)c1C2=O (single isomer, unassigned) [Compound 44] | 1.9 | 316 | – | – |
| COCCC[C@@]1(C)C(=O)c2c(O)c(=O)c(C(=O)NCc3ccc(F)cc3F)cn2C[C@@H]1OC [Compound 76] | – | – | 0.9 | 35 |
| CC1(C)CCC[C@]2(C)C(=O)c3c(O)c(=O)c(C(=O)NCc4ccc(F)cc4F)cn3C[C@]12O [Compound 108] | – | – | 2 | 105 |
| COCCC[C@@]1(C)C(=O)c2c(O)c(=O)c(C(=O)NCc3ccc(F)cc3F)cn2C[C@@H]1OC [Compound 77] | 1.2 | 60 | – | – |
| COCCC[C@@]1(C)C(=O)c2c(O)c(=O)c(C(=O)NCc3c(F)cc(F)cc3F)cn2C[C@@H]1OC [Compound 92] | – | – | 1.3 | 59 |
| CC1(C)CCn2cc(C(=O)NCc3ccc(F)cc3)c(=O)c(O)c2C1=O [Compound 2] | – | – | 27 | – |
